Results published in US6605614B2, “[1,8] naphthyridine derivatives having antiviral activity” (BioChem Pharma Inc., priority 1999, dated 2003).
Structures can show the parent of a compound that is named as a salt.

Assays:
BVDV(NADL) = assay: WST-1 based BVDV anti-viral assay (CPE reduction in infected MDBK cells); type: cell-based; conditions: Bovine viral diarrhea virus isolates and strains, 96 h, MDBK cells infected with cytopathic BVDV (NADL), MOI 0.006 to 0.01, 4 days incubation, WST-1 readout, read-out: BVDV antiviral effect IC50
Description: Currently, the WST-1 based BVDV assay, is being used as surrogate to evaluate potential anti-HCV agents since BVDV (bovine viral diarrhea virus) shares functional homology with the HCV.
To determine the anti-viral effect of the compounds, MDBK cells were infected with the cytopathic strain of BVDV(NADL) using a 0.006 to 0.01 MOI. 3000 cells were then seeded in each well of a 96-well plate containing the compound. The final volume was 200 μl of media per wells. […] Cell culture was then incubated for another 2 hrs at 37° C., after which 20 μl of 10% SDS was added to each well in order to inactivate the virus and the OD at 450 nm was determined using a microplate reader (Dynatech MR5000). […]

[1] = Compound toxicity, WST-1, non-infected MDBK cells; type: cell-based; conditions: bovine, 4 days incubation, WST-1 readout
Description: To determine the anti-viral effect of the compounds, MDBK cells were infected with the cytopathic strain of BVDV(NADL) using a 0.006 to 0.01 MOI. 3000 cells were then seeded in each well of a 96-well plate containing the compound. The final volume was 200 μl of media per wells. […] Cell culture was then incubated for another 2 hrs at 37° C., after which 20 μl of 10% SDS was added to each well in order to inactivate the virus and the OD at 450 nm was determined using a microplate reader (Dynatech MR5000).
In parallel, the same experiment was performed using non-infected cells to determine the compound toxicity. […]

SMILES | IC50 (BVDV(NADL)) | CC50 at 4 days [1]
O=C(NCc1ccccc1)c1ccc2cccnc2n1 [Compound #2, [1,8] naphthyridine-2-carboxylic acid benzylamide] | < 76 µM | > 76 µM
COc1ccc(CNC(=O)c2ccc3cccnc3n2)cc1 [Compound #3, [1,8] naphthyridine-2-carboxylic acid 4-methoxy-benzylamide] | ~1.7 µM | > 68.2 µM
COc1cccc(CNC(=O)c2ccc3cccnc3n2)c1 [Compound #4, [1,8] naphthyridine-2-carboxylic acid 3-methoxy-benzylamide] | ~6.8 µM | > 68.2 µM
COc1cc(OC)c(CNC(=O)c2ccc3cccnc3n2)c(OC)c1 [Compound #5, [1,8] naphthyridine-2-carboxylic acid 2,4,6-trimethoxy-benzylamide] | ~1.1 µM | > 56.6 µM
CC(C)Oc1ccccc1CNC(=O)c1ccc2cccnc2n1 [Compound #8, [1,8] naphthyridine-2-carboxylic acid 2-isopropoxy-benzylamide] | < 62.2 µM | > 62.2 µM
CC[C@@H](C)Oc1ccccc1CNC(=O)c1ccc2cccnc2n1 [Compound #10, (−)-[1,8] naphthyridine-2-carboxylic acid 2-sec-butoxy-benzylamide] | > 6 µM | > 6 µM
O=C(NCc1cccnc1)c1ccc2cccnc2n1 [Compound #12, [1,8] naphthyridine-2-carboxylic acid (pyridin-3-ylmethyl)-amide] | ~18.9 µM | > 75.7 µM
O=C(NCc1ccccn1)c1ccc2cccnc2n1 [Compound #13, [1,8] naphthyridine-2-carboxylic acid (pyridin-2-ylmethyl)-amide] | – | > 75.7 µM
O=C(Nc1ccccn1)c1ccc2cccnc2n1 [Compound #15, [1,8] naphthyridine-2-carboxylic acid pyridin-2-ylamide] | – | > 79.9 µM
O=C(NCc1ccccc1F)c1ccc2cccnc2n1 [Compound #16, [1,8] naphthyridine-2-carboxylic acid 2-fluoro-benzylamide] | ~1.1 µM | > 71.1 µM
O=C(NCc1ccccc1Cl)c1ccc2cccnc2n1 [Compound #17, [1,8] naphthyridine-2-carboxylic acid 2-chloro-benzylamide] | ~3.6 µM | > 67.2 µM
O=C(Nc1cccc([N+](=O)[O-])c1)c1ccc2cccnc2n1 [Compound #19, [1,8] naphthyridine-2-carboxylic acid (3-nitrophenyl)-amide] | ~1.7 µM | > 68 µM
O=C(Nc1nccs1)c1ccc2cccnc2n1 [Compound #22, [1,8] naphthyridine-2-carboxylic acid thiazol-2-ylamide] | – | > 78 µM
O=C(Nc1nc2ccccc2s1)c1ccc2cccnc2n1 [Compound #23, [1,8] naphthyridine-2-carboxylic acid benzothiazol-2-ylamide] | – | > 6.5 µM
O=C(Nc1ccccc1F)c1ccc2cccnc2n1 [Compound #24, [1,8] naphthyridine-2-carboxylic acid (2-fluoro-phenyl)-amide] | ~7.5 µM | > 74.8 µM
COc1ccccc1CNC(=N)c1ccc2cccnc2n1 [Compound #27, N-(2-methoxy-benzyl)-[1,8]naphthyridine-2-carboxamidine trifluoroacetate] | ~0.33 µM | > 63.2 µM
O=C(Nc1ccccc1)c1ccc2cccnc2n1 [Compound #28, [1,8] naphthyridine-2-carboxylic acid phenyl-amide] | – | > 80.2 µM
O=C(Nc1cccnc1)c1ccc2cccnc2n1 [Compound #29, [1,8] naphthyridine-2-carboxylic acid pyridin-3-yl-amide] | ~3.2 µM | > 79.9 µM
O=C(Nc1cccc(C(F)(F)F)c1)c1ccc2cccnc2n1 [Compound #30, [1,8] naphthyridine-2-carboxylic acid (phenyl-3-trifluoromethyl)-amide] | ~0.6 µM | 6.3 µM
O=C(NCc1cccc(C(F)(F)F)c1)c1ccc2cccnc2n1 [Compound #31, [1,8] naphthyridine-2-carboxylic acid (phenylmethyl-3-trifluoromethyl)-amide] | ~3 µM | > 60.4 µM
